Experimental findings from US20100233532A1, “Composition for battery” (TOYO INK MFG. CO., LTD., priority 2007, published 2010) are described below.

Each structure is given as a SMILES string.

A short description of the series: Solubility of dispersants in purified water. In kind it is physicochemical.
Method: Evaluations of solubility were carried out by evaluating dispersants having solubility in purified water of 0.02% or more as “O” (soluble) and those having solubility of less than 0.02% as “x” (insoluble).
Regarding `Cc1ccc(Nc2nc(Nc3ccccc3)nc(Nc3ccc4[nH]c(=O)[nH]c4c3)n2)cc1S(=O)(=O)O` [Dispersant A], the Solubility in water entry was “Salt forming substance: None Solubility in water: ∘”.
With `O=P(O)(O)c1ccc(Nc2nc(Nc3ccc4ccccc4c3)nc(Nc3ccc4ccccc4c3)n2)cc1` [Dispersant F] the entry was “Salt forming substance: None Solubility in water: ∘”; with `CC1(C)CC(Nc2nc(Nc3ccc(P(=O)(O)O)cc3)nc(Nc3ccc4[nH]c(=O)[nH]c4c3)n2)CC(C)(CNc2nc(Nc3ccc(P(=O)(O)O)cc3)nc(Nc3ccc4[nH]c(=O)[nH]c4c3)n2)C1` (stereo not shown) [Dispersant G], “Solubility in water: x (solubility of less than 0.02% as “x” (insoluble))”; with `CCn1c2ccccc2c2cc(Nc3nc(O)nc(Nc4ccc(O)c(C(=O)O)c4)n3)ccc21` [Dispersant H], “Salt forming substance: None Solubility in water: ∘”.
With `O=C1Cc2ccc(Nc3nc(Nc4ccc(C(=O)O)cc4)nc(Nc4ccc5[nH]c(=O)[nH]c5c4)n3)cc2C1` [Dispersant I] the entry was “Solubility in water: x (solubility of less than 0.02% as “x” (insoluble))”; with `Cc1ccc2cccc(Nc3nc(Nc4ccc(C(=O)O)cc4)nc(Nc4ccc(C(=O)O)cc4)n3)c2n1` [Dispersant J], “Solubility in water: x (solubility of less than 0.02% as “x” (insoluble))”; with `O=C(O)c1cc2ccccc2c(N=Nc2ccc([N+](=O)[O-])cc2)c1O` [Dispersant O], “Salt forming substance: None Solubility in water: ∘”.
